In patent US11319300B2, “Polyfluoro-substituted aromatic heterocyclic derivative, pharmaceutical composition containing same, and applications thereof” (ZHEJIANG UNIVERSITY, priority 2017, dated 2022):

Columns and labels:
[1] = molecular target: T1, AKT1/PKBα (Homo sapiens, UniProt P31749); assay: Akt1 enzyme inhibitory activity, AKT1/PKBα KinEASE FP Fluorescein Green Assay; assay type: biochemical; details: fluorescence polarization kit assay; read-out: Akt1 IC50 (grade)
T1 construct: purchased
Description: (§1) Compound AZD5363 (NCT02208375, NCT02208375, NCT01625286), which have entered the clinical phase II study, was used as a positive control, and the compound was assayed against common tumour cell lines (human ovarian cancer cell line OVCAR-8 and human colon cancer cell line HCT-116) by MTT assay, at the same time, the akt1 enzyme inhibitory activity (IC50) was evaluated using a commercial Akt1 kit.
2) Test method for the inhibitory activity of the compound of the present invention against Akt1 enzyme:
The AKT1/PKBα KinEASE™ FP Fluorescein Green Assay (Kinase Green Fluorescence Detection System) was used to detect the inhibitory activity of the compound on AKT1/PKBα.
Fluorescence polarization detection protein kinase B employs the principle of a competitive reaction: a fluorescently labeled phosphorylated tracer and an unlabeled phosphorylated product produced by the reaction of protein kinase B will compete with the anti-serine antibody for binding. In a reaction mixture […], when a part of the fluorescent tracer binds to the antibody, it causes a higher polarization value. However, in the reaction solution mixture containing the phosphorylated product, less tracer binds to the antibody (the fluorescent tracer was replaced from the antibody) and the emitted signal was depolarized. Therefore, the change in polarization was directly related to the activity of protein kinase B in the reaction.
The compound of the present invention and the positive control AZD5363 were dissolved in dimethyl sulfoxide (DMSO) and diluted to a concentration of 50 μM. At room temperature, 0.25 μl of the compound sample and the positive control at a concentration of 50 μM were taken and added to the 384-well plate, and three parallel wells were set for each sample, and then 10 μl of STK Substrate 3, Working Solution, 5 μl AKT1/PKBα Working Solution, 10 μl ATP Working Solution were added to each sample well plate with vibrating gently and shaking for a few minutes. The reaction starts after 10 μl of ATP Working Solution was added to the well, and the reaction was timed at room temperature for 1 hour. After one hour, 5 μl of STK Stop Mix and 5 μl of STK Antibody Mix were added to each well respectively to stop the reaction. After the addition completes, it was allowed to stand at room temperature for four hours, and the polarization value of the sample was detected by the fluorescence polarization of the microplate reader (it was effective to detect its signal within 24 hours), and the inhibition rate of the compound was calculated by the polarization value, and then IC50 was calculated.
Four sets of controls were set in the experiment, namely Buffer Control Wells, Tracer Control Wells, No Enzyme Wells, and a blank dimethyl sulfoxide control. The resulting data was used to calculate the inhibition rate.
The activity of the compound was divided into three grades according to the size of the IC50 of the Akt inhibitory activity: “+++”, 1 nM<IC50<10 nM; “++”, 10 nM<IC50<50 nM; “+”, 50 nM<IC50.

[2] = tested on: HGC27; assay: Tumour cell proliferation inhibition, MTT assay, HGC27; assay type: cell-based, human
[3] = tested on: CEM-C1; assay: Tumour cell proliferation inhibition, MTT assay, CEM-C1; assay type: cell-based, human
[4] = tested on: HCT-116; assay: Tumour cell proliferation inhibition, MTT assay, HCT-116; assay type: cell-based, human
Description: as §1
1) The pharmacological test method for the tumour cell proliferation inhibiting activity of the compound of the present invention was as follows:
The first was the determination of in vitro tumour growth inhibitory activity and the preliminary structure-activity relationship study, and different solid tumour cell lines were used to determine the in vitro antitumour activity of the synthesized compounds.
Experimental materials: cell lines: human ovarian cancer cells (OVCAR8), colon adenocarcinoma cells (HCT-116),
Medium: OVCAR8: RPMI 1640+fetal calf serum
Drug preparation method: dissolving the drug in DMSO to make a 50 mM of stock solution, and diluting it to a certain ratio to obtain 5 different concentrations.
Tumour Cells being Cultured In Vitro:
The selected tumour cells were incubated in a, 5% of CO2 cell incubator at 37° C., and passaged until the cell density was 70 to 90% (the adherent cells were passaged with Duck's EDTA) and used for subsequent experiments.
The compound was dissolved in dimethyl sulfoxide (DMSO), diluted, and tumour cells were seeded into 4000 cells/200 μL/well in 96-well plates, and 1 μL of compound was added to each well to a final concentration of 50 μM, 10 μM, 2 μM, and 0.4 μM. 0.08 μM were incubated in a, 5% of CO2 cell incubator at 37° C. for 72 hours with DMSO (1%) as a blank control.
The calculation formula of the cell inhibition rate is: cell inhibition rate %=(control group OD value−drug group OD value)/control cell OD value×100%, and the half inhibition concentration (IC50) was determined by the Bliss method.

[5] = tested on: 786-O; assay: Tumour cell proliferation inhibition, MTT assay, 786-O; assay type: cell-based, human
[6] = tested on: MCF-7; assay: Tumour cell proliferation inhibition, MTT assay, MCF-7; assay type: cell-based, human
[7] = Oral pharmacokinetic experiment in SD rats; assay type: in vivo; details: oral administration
Description: […] The blood sampling times of the tail vein administered by intragastric administration were 0.25, 0.5, 1, 2, 4, 6, 8, 10, 24 hours; the times of blood collection by intravenous administration were 0.05, 0.1, 0.17, 0.5, 1, 2, 4, 6, 8, 10, 24 hours. 0.3 ml of whole blood was taken, and after centrifugation, 0.1 ml of plasma was taken and analysed by LC-MS.

[8] = rat, in vivo, 20 mg/kg, mean n = 3

T1 sequence (P31749 whole entry): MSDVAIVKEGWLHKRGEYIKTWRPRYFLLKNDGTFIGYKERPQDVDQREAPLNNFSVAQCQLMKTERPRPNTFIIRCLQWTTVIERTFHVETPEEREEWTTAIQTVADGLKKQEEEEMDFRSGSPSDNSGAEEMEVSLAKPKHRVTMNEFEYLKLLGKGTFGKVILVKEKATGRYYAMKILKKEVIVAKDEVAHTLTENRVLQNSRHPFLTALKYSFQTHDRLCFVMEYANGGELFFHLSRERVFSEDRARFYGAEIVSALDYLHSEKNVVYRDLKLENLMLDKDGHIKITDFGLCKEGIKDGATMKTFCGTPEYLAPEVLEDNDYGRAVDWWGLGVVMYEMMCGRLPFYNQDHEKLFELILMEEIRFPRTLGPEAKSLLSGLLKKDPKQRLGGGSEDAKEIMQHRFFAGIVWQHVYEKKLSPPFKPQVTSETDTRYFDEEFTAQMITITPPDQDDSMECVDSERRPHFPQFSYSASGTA

Row | SMILES | IC50 [1] | IC50 ([2]; Homo sapiens, HGC-27, 72 h) | IC50 ([3]; Homo sapiens, CEM/C1, 72 h) | also measured
1 | Cn1nccc1-c1ccc(C(=O)N[C@@H]2CNCC[C@H]2c2c(F)c(F)cc(F)c2F)c(F)c1 [VII-9, 4-(1-methyl-1H-pyrazole-yl)-N-((3S,4S)-(2,3,5,6-tetrafluorophenyl)piperidin-3-yl)-2-fluorobenzamide] | 10 to 50 nM | 80 nM | 210 nM | –
2 | Cn1nccc1-c1ccc(C(=O)N[C@@H]2CNCC[C@H]2c2ccc(F)c(F)c2)c(F)c1 [VII-34, D-tartrate] | 1 to 10 nM | – | – | IC50 ([4]; 72 hours, D-tartrate): 2150 nM; IC50 ([5]; 72 hours, D-tartrate): 1060 nM; IC50 ([2]; 72 hours, D-tartrate): 30 nM; IC50 ([3]; 72 hours, D-tartrate): 130 nM; IC50 ([6]; 72 hours, D-tartrate): 3090 nM
3 | Cc1cnn(C)c1-c1ccc(C(=O)N[C@@H]2CNCC[C@H]2c2ccc(F)c(F)c2)c(F)c1 [VII-3, 4-(1,4-dimethyl-1H-pyrazole-yl)-N-((3S,4S)-4-(3,4-difluorophenyl)piperidin-3-yl)-2-fluorobenzamide] | 10 to 50 nM | 90 nM | 160 nM | –
4 | Cn1nccc1-c1cc(F)c(C(=O)N[C@@H]2CNC[C@H]2c2ccc(F)c(F)c2)c(F)c1 [VII-21, 4-(1-methyl-1H-pyrazole-yl)-N-((3S,4R)-(3,4-difluorophenyl)pyrrolidin-3-yl)-2,6-difluorobenzamide] | 10 to 50 nM | 80 nM | 150 nM | –
5 | O=C(N[C@@H]1CNCC[C@H]1c1ccc(F)c(F)c1)c1ccc(-c2ccnn2C2CC2)cc1F [VII-28, 4-(1-cyclopropyl-1H-pyrazol-yl)-N-((3S,4S)-4-(3,4-difluorophenyl)piperidin-3-yl)-2-fluorobenzamide] | 10 to 50 nM | 50 nM | 100 nM | –
6 | Cn1nccc1-c1cc(F)c(C(=O)N[C@@H]2CNCC[C@H]2c2ccc(F)c(F)c2)c(F)c1F [VII-13, 4-(1-methyl-1H-pyrazole-yl)-N-((3S,4S)-4-(3,4-difluorophenyl)piperidin-3-yl)-2,3,6-trifluorobenzamide] | > 50 nM | – | – | –
7 | [2H]C([2H])([2H])n1nccc1-c1ccc(C(=O)N[C@@H]2CNCC[C@H]2c2ccc(F)c(F)c2)c(F)c1 [VII-29, 4-(1-(methyl-d3)-1H-pyrazol-yl)-N-((3S,4S)-4-(3,4-difluorophenyl)piperidin-3-yl)-2 fluorobenzamide] | 10 to 50 nM | 40 nM | 60 nM | –
8 | Cn1nccc1-c1cc(F)c(C(=O)N[C@@H]2CNCC[C@H]2c2ccc(F)c(F)c2)c(C(F)(F)F)c1 [VII-16, 4-(1-methyl-1H-pyrazole-yl)-N-((3S,4S)-4-(3,4-difluorophenyl)piperidin-3-yl)-2-trifluoromethyl-6-fluorobenzamide] | 10 to 50 nM | 80 nM | 110 nM | –
9 | Cn1nccc1-c1ccc(C(=O)N[C@@H]2CNCC[C@H]2c2ccc(F)c(F)c2)c(F)c1F [VII-17, 4-(1-methyl-1H-pyrazole-yl)-N-((3S,4S)-4-(3,4-difluorophenyl)piperidin-3-yl)-2,3-difluorobenzamide] | 10 to 50 nM | 40 nM | 90 nM | –
10 | Cn1ncc(Cl)c1-c1ccc(C(=O)N[C@@H]2CNCC[C@H]2c2ccc(Cl)cc2)c(C(F)(F)F)c1 [reference compound] | 1 to 10 nM | 180 nM | 440 nM | IC50 ([4]; Homo sapiens, HCT-116, 72 h): 6150 nM; IC50 ([5]; Homo sapiens, 786-0, 72 h): 2990 nM; IC50 ([6]; Homo sapiens, MCF7, 72 h): 5130 nM
11 | Cn1ncc(C2CC2)c1-c1ccc(C(=O)N[C@@H]2CNCC[C@H]2c2ccc(F)c(F)c2)c(F)c1 [VII-4] | > 50 nM | – | – | –
12 | CCn1nccc1-c1ccc(C(=O)N[C@@H]2CNCC[C@H]2c2ccc(F)c(F)c2)c(F)c1 [VII-27, 4-(1-ethyl-1H-pyrazole-yl)-N-((3S,4S)-4-(3,4-difluorophenyl)piperidin-3-yl)-2-fluorobenzamide] | 10 to 50 nM | 90 nM | 130 nM | –
13 | Cn1nccc1-c1ccc(C(=O)N[C@@H]2CNCC[C@H]2c2ccc(F)c(F)c2)c(F)c1 (racemic) [VII-32] | 1 to 10 nM | 60 nM | 70 nM | IC50 ([4]; Homo sapiens, HCT-116, 72 h): 980 nM; IC50 ([5]; Homo sapiens, 786-0, 72 h): 910 nM; IC50 ([6]; Homo sapiens, MCF7, 72 h): 1980 nM
14 | Cn1nccc1-c1ccc(S(=O)(=O)N[C@@H]2CNCC[C@H]2c2ccc(F)c(F)c2)c(F)c1 [VII-23, N-((3S,4S)-4-(3,4-difluorophenyl)piperidin-3-yl)-2-fluoro-4-(1-methyl-1H-pyrazol-5-yl)benzenesulfonamide] | > 50 nM | – | – | –
15 | Cn1nccc1-c1ccc(C(=O)N[C@H]2CNCC[C@@H]2c2ccc(F)c(F)c2)c(F)c1 [VII-1b, 4-(1-methyl-1H-pyrazole-yl)-N-((3R,4R)-(3,4-difluorophenyl)piperidin-3-yl)-2-fluorobenzamide] | 10 to 50 nM | – | – | –
16 | Cc1cc(-c2ccnn2C)cc(F)c1C(=O)N[C@@H]1CNCC[C@H]1c1ccc(F)c(F)c1 [VII-15, 4-(1-methyl-1H-pyrazole-yl)-N-((3S,4S)-4-(3,4-difluorophenyl)piperidin-3-yl)-2-methyl-6-fluorobenzamide] | > 50 nM | – | – | –
17 | Cn1nccc1-c1cc(F)c(C(=O)N[C@@H]2CNCC[C@H]2c2ccc(F)c(F)c2)c(Cl)c1 [VII-14] | 10 to 50 nM | 100 nM | 180 nM | –
18 | Cn1ncc(Br)c1-c1ccc(C(=O)N[C@@H]2CNCC[C@H]2c2ccc(F)c(F)c2)c(F)c1 [VII-6, 4-(1-methyl-4-bromo-1H-pyrazole-yl)-N-((3S,4S)-(3,4-difluorophenyl)piperidin-3-yl)-2-fluorobenzamide] | 10 to 50 nM | 40 nM | 150 nM | –
19 | Cn1nccc1-c1ccc(C(=O)N[C@@H]2CNCC[C@H]2c2ccc(F)c(F)c2)c(F)c1.O=C(O)C(O)C(O)C(=O)O [VII-33] | – | – | – | 1/2 ([7]; 20 mg/kg, mean n = 3): 3.69 h; AUC0-inf ([7]; 20 mg/kg, mean n = 3): 2160 ng·h/mL; AUC0-t ([7]; 20 mg/kg, mean n = 3): 1950 ng·h/mL; improvement of AUC0-t over VII-1a ([7]; salt versus free form VII-1a): 30%; Cmax [7, 8]: 200 ng/mL; Tmax [7, 8]: 4 h
20 | Cn1ncc(Cl)c1-c1ccc(C(=O)N[C@@H]2CNCC[C@H]2c2ccc(F)c(F)c2)c(F)c1 [VII-2, 4-(1-methyl-4-chloro-1H-pyrazole-yl)-N-((3S,4S)-(3,4-difluorophenyl)piperidin-3-yl)-2-fluorobenzamide] | 10 to 50 nM | 70 nM | – | –
21 | Cn1ncnc1-c1ccc(C(=O)N[C@@H]2CNCC[C@H]2c2ccc(F)c(F)c2)c(F)c1 [VII-26] | 10 to 50 nM | 70 nM | 70 nM | –
22 | Cn1ncc(Cl)c1-c1ccc(C(=O)N[C@@H]2CNC[C@H]2c2ccc(F)c(F)c2)c(F)c1 [VII-19, 4-(1-methyl-4-chloro-1H-pyrazole-yl)-N-((3S,4R)-(3,4-difluorophenyl)pyrrolidin-3-yl)-2-fluorobenzamide] | 10 to 50 nM | 20 nM | 60 nM | –
